Here are results for 63 molecules from doi:10.1101/2021.10.07.463234v2 (biorxiv, 2021).

Counter-ions that a name gives are not always drawn.

For one test, the target named is SARS-CoV-2 Mac1 (Severe acute respiratory syndrome coronavirus 2, UniProt P0DTD1). The experiment in a line: biochemical. Particulars: 100 µM; inhibitor.
What is called %inhibition is the relative decrease from the control value, in per cent. A high value points to a strong effect. Turning to `CCN(C)C(=O)Oc1cccc([C@H](C)N(C)C)c1` [Rivastigmine Tartrate], the “%inhibition” value was 0.5521%.
In the case of `CCN(C)C(=O)Oc1cccc([C@H](C)N(C)C)c1` [Rivastigmine], the “%inhibition” value is 0%.
For `CN(CCOc1ccc(CC2SC(=O)NC2=O)cc1)c1ccccn1` (stereo not drawn) [Rosiglitazone HCl], the “%inhibition” value is 0%.
Turning to `CN(CCOc1ccc(CC2SC(=O)NC2=O)cc1)c1ccccn1` (stereo not drawn) [Rosiglitazone maleate], the “%inhibition” value is 9.239%.
As to `CN(CCOc1ccc(CC2SC(=O)NC2=O)cc1)c1ccccn1` (stereo not drawn) [Rosiglitazone], the “%inhibition” value worked out at 18.44%.
Regarding `CC(C)c1nc(N(C)S(C)(=O)=O)nc(-c2ccc(F)cc2)c1/C=C/[C@@H](O)C[C@@H](O)CC(=O)O` [Rosuvastatin Calcium], the “%inhibition” value is 0%.
On to `CC(C)c1nc(N(C)S(C)(=O)=O)nc(-c2ccc(F)cc2)c1/C=C/[C@@H](O)C[C@@H](O)CC(=O)O` [Rosuvastatin], for which the “%inhibition” value is listed as 7.223%.
Consider `N#CC[C@H](C1CCCC1)n1cc(-c2ncnc3[nH]ccc23)cn1` [Ruxolitinib (INCB018424)], for which the “%inhibition” value is 0%.
On the same count and under the same terms, to `N#CC[C@H](C1CCCC1)n1cc(-c2ncnc3[nH]ccc23)cn1` [S-Ruxolitinib (INCB018424)] belongs 18.93%; to `C[C@H](NCc1ccc(OCc2cccc(F)c2)cc1)C(N)=O` [Safinamide Mesylate], 9.23%.
Regarding `CC(C)(C)NCC(O)c1ccc(O)c(CO)c1` (stereo not drawn) [Salbutamol Sulfate], the “%inhibition” value is recorded as 6.444%.
Consider `CC(C)(C)NCC(O)c1ccc(O)c(CO)c1` (stereo not drawn) [Salbutamol], for which the “%inhibition” value is on record as 0%.
With `O=C(O)c1ccccc1O` [Salicylic acid], the “%inhibition” value is 1.324%.

The same test, now with this note: read-out: %inhibition.
Broadly, the inhibition is how much of the control response was suppressed. With `NC(=O)c1ncn([C@@H]2O[C@H](CO)[C@@H](O)[C@H]2O)n1` [Ribavirin], the inhibition at 100 µM is 0.0871%.
On the same count and under the same terms, the figure for `CN(C)C(=O)c1cc2cnc(Nc3ccc(N4CCNCC4)cn3)nc2n1C1CCCC1` [Ribociclib (LEE011)] is 0.852%; for `O=C(CCCCCCNC(=O)c1cnc(N(c2ccccc2)c2ccccc2)nc1)NO` [Ricolinostat (ACY-1215)] it is 3.74%; for `CO[C@H]1/C=C/O[C@@]2(C)Oc3c(C)c(O)c4c(c3C2=O)C2=NC3(CCN(CC(C)C)CC3)NC2=C(NC(=O)/C(C)=C\C=C\[C@H](C)[C@H](O)[C@@H](C)[C@@H](O)[C@@H](C)[C@H](OC(C)=O)[C@@H]1C)C4=O` [Rifabutin] it is 34.6%.
Turning to `CO[C@H]1/C=C/O[C@@]2(C)Oc3c(C)c(O)c4c(O)c(c(/C=N/N5CCN(C)CC5)c(O)c4c3C2=O)NC(=O)/C(C)=C\C=C\[C@H](C)[C@H](O)[C@@H](C)[C@@H](O)[C@@H](C)[C@H](OC(C)=O)[C@@H]1C` [Rifampin], the inhibition at 100 µM was determined as 31.3%.
The same measure, in the same setting: to `CO[C@H]1/C=C/O[C@@]2(C)Oc3c(C)c(O)c4c(O)c(cc(O)c4c3C2=O)NC(=O)/C(C)=C\C=C\[C@H](C)[C@H](O)[C@@H](C)[C@@H](O)[C@@H](C)[C@H](OC(C)=O)[C@@H]1C` [Rifamycin sodium salt] belongs 10.7%.
On the same count and under the same terms, the figure for `CO[C@H]1/C=C/O[C@@]2(C)Oc3c(C)c(O)c4c(O)c(c(/C=N/N5CCN(C6CCCC6)CC5)c(O)c4c3C2=O)NC(=O)/C(C)=C\C=C\[C@H](C)[C@H](O)[C@@H](C)[C@@H](O)[C@@H](C)[C@H](OC(C)=O)[C@@H]1C` [Rifapentine] is 26.7%; for `CO[C@H]1/C=C/O[C@@]2(C)Oc3c(C)c(O)c4c(O)c(c5c(nc6cc(C)ccn65)c4c3C2=O)NC(=O)/C(C)=C\C=C\[C@H](C)[C@H](O)[C@@H](C)[C@@H](O)[C@@H](C)[C@H](OC(C)=O)[C@@H]1C` [Rifaximin] it is 22.3%; for `COc1cc(OC)c(/C=C/S(=O)(=O)Cc2ccc(OC)c(NCC(=O)O)c2)c(OC)c1` [Rigosertib (ON-01910)] it is 0.0877%.
Consider `Cc1cc(/C=C/C#N)cc(C)c1Nc1ccnc(Nc2ccc(C#N)cc2)n1` [Rilpivirine], for which the inhibition at 100 µM worked out at 7.83%.
Consider `Nc1nc2ccc(OC(F)(F)F)cc2s1` [Riluzole], for which the inhibition at 100 µM stood at 0%.
Turning to `CC(N)[C@]12C[C@H]3C[C@H](C[C@H](C3)C1)C2` (stereo partly drawn) [Rimantadine Hydrochloride], the inhibition at 100 µM was 4.71%.
Consider `CC(N)C12CC3CC(CC(C3)C1)C2` (stereo not drawn) [Rimantadine], for which the inhibition at 100 µM stood at 28.1%.
The same measure, in the same setting: to `Cc1c(C(=O)NN2CCCCC2)nn(-c2ccc(Cl)cc2Cl)c1-c1ccc(Cl)cc1` [Rimonabant] belongs 3.4%; to `COC(=O)N(C)c1c(N)nc(-c2nn(Cc3ccccc3F)c3ncccc23)nc1N` [Riociguat (BAY 63-2521)], 21.9%; to `C[C@H]1CNCCCN1S(=O)(=O)c1cccc2cncc(F)c12` [Ripasudil (K-115) hydrochloride dihydrate], 23.9%.
Still for that read-out and setting: to `O=P(O)(O)C(O)(Cc1cccnc1)P(=O)(O)O` [Risedronate Sodium] belongs 8.32%; to `CC(C)c1nc(CN(C)C(=O)N[C@H](C(=O)N[C@@H](Cc2ccccc2)C[C@H](O)[C@H](Cc2ccccc2)NC(=O)OCc2cncs2)C(C)C)cs1` [Ritonavir], 0%; to `O=C(NC[C@H]1CN(c2ccc(N3CCOCC3=O)cc2)C(=O)O1)c1ccc(Cl)s1` [Rivaroxaban], 4.28%.
Same read-out and setting: the figure for `CN(C)CCc1c[nH]c2ccc(Cn3cncn3)cc12` [Rizatriptan Benzoate] is 0%; for `C=CC(=O)Nc1cccc(Nc2nc(Nc3ccc(N4CCN(C(C)=O)CC4)cc3OC)ncc2C(F)(F)F)c1` [Rociletinib (CO-1686, AVL-301)] it is 0%; for `C=CC[N+]1([C@H]2C[C@H]3[C@@H]4CC[C@H]5C[C@H](O)[C@@H](N6CCOCC6)C[C@]5(C)[C@H]4CC[C@]3(C)[C@H]2OC(C)=O)CCCC1` [Rocuronium Bromide] it is 0%.
`CS(=O)(=O)c1ccc(C2=C(c3ccccc3)C(=O)OC2)cc1` [Rofecoxib]: the inhibition at 100 µM is 12.8%.
Consider `O=C(Nc1c(Cl)cncc1Cl)c1ccc(OC(F)F)c(OCC2CC2)c1` [Roflumilast], for which the inhibition at 100 µM stood at 5.88%.
In the case of `COc1ccc(C2CNC(=O)C2)cc1OC1CCCC1` (stereo not drawn) [Rolipram], the inhibition at 100 µM came out at 0%.
The same measure, in the same setting: the figure for `Cn1c([N+](=O)[O-])cnc1COC(N)=O` [Ronidazole] is 0%.
Consider `CCCN(CCC)CCc1cccc2c1CC(=O)N2` [Ropinirole HCl], for which the inhibition at 100 µM turned out to be 0%.
As for `CCCN1CCCC[C@H]1C(=O)Nc1c(C)cccc1C` [Ropivacaine], the inhibition at 100 µM stood at 0%.
As for `CCCN(CCc1cccs1)[C@H]1CCc2c(O)cccc2C1` [Rotigotine], the inhibition at 100 µM came to 6.99%.
Regarding `Cc1nc(C(=O)NCC(=O)O)c(O)c2ccc(Oc3ccccc3)cc12` [Roxadustat (FG-4592)], the inhibition at 100 µM stood at 14.8%.
Turning to `CC[C@H]1OC(=O)[C@H](C)[C@@H](O[C@H]2C[C@@](C)(OC)[C@@H](O)[C@H](C)O2)[C@H](C)[C@@H](O[C@@H]2O[C@H](C)C[C@H](N(C)C)[C@H]2O)[C@](C)(O)C[C@@H](C)/C(=N\OCOCCOC)[C@H](C)[C@@H](O)[C@]1(C)O` [Roxithromycin], the inhibition at 100 µM turned out to be 0.445%.
Consider `CNCc1ccc(-c2[nH]c3cc(F)cc4c3c2CCNC4=O)cc1` [Rucaparib (AG-014699,PF-01367338) phosphate], for which the inhibition at 100 µM was 10.4%.
On to `NC(=O)c1cn(Cc2c(F)cccc2F)nn1` [Rufinamide], for which the inhibition at 100 µM came out at 25.2%.
Turning to `Cc1cncc(CN2CCC(=C3c4ccc(Cl)cc4CCc4cccnc43)CC2)c1` [Rupatadine Fumarate], the inhibition at 100 µM was found to be 24.3%.
Consider `C[C@@H]1O[C@@H](OC[C@H]2O[C@@H](Oc3c(-c4ccc(O)c(O)c4)oc4cc(O)cc(O)c4c3=O)[C@H](O)[C@@H](O)[C@@H]2O)[C@H](O)[C@H](O)[C@H]1O` [Rutin], for which the inhibition at 100 µM worked out at 3.42%.
Still for that read-out and setting: the figure for `COc1ccc([C@H]2CNC(=O)C2)cc1OC1CCCC1` [S- (+)-Rolipram] is 0%; for `O=C1NS(=O)(=O)c2ccccc21` [Saccharin] it is 0%.
On to `C[C@H](NCc1ccc(OCc2cccc(F)c2)cc1)C(N)=O` [Safinamide], for which the inhibition at 100 µM turned out to be 15%.
In the case of `CC(C)=CCC/C(C)=C/CC/C(C)=C/CSc1ccccc1C(=O)O` [Salirasib], the inhibition at 100 µM was 0%.
As to `OCc1cc(C(O)CNCCCCCCOCCCCc2ccccc2)ccc1O` (stereo not drawn) [Salmeterol], the inhibition at 100 µM was 3.12%.
Turning to `CN1CCN(CCOc2cc(OC3CCOCC3)c3c(Nc4c(Cl)ccc5c4OCO5)ncnc3c2)CC1` [Saracatinib (AZD0530)], the inhibition at 100 µM was 32.3%.
As to `O=C(O)c1cn(-c2ccc(F)cc2)c2cc(N3CCNCC3)c(F)cc2c1=O` [Sarafloxacin HCl], the inhibition at 100 µM turned out to be 15.7%.
Consider `COc1cccc(CCc2ccccc2OCC(CN(C)C)OC(=O)CCC(=O)O)c1` (stereo not drawn) [Sarpogrelate hydrochloride], for which the inhibition at 100 µM worked out at 0%.
Take `N#C[C@@H]1C[C@@H]2C[C@@H]2N1C(=O)[C@@H](N)C12CC3CC(CC(O)(C3)C1)C2` [Saxagliptin hydrate]: the inhibition at 100 µM came to 8.79%.
As to `N#C[C@@H]1C[C@H]2C[C@H]2N1C(=O)[C@@H](N)[C@@]12C[C@@H]3C[C@@H](C[C@@](O)(C3)C1)C2` [Saxagliptin], the inhibition at 100 µM turned out to be 12.8%.
As to `CN1[C@@H]2C[C@@H](OC(=O)[C@H](CO)c3ccccc3)C[C@H]1[C@@H]1O[C@@H]12` [Scopolamine HBr], the inhibition at 100 µM stood at 0%.
On the same count and under the same terms, to `Cc1ncc([N+](=O)[O-])n1CC(C)O` (stereo not drawn) [Secnidazole] belongs 34.4%; to `CO[C@H]1C[C@H](O[C@@H]2/C(C)=C/C[C@@H]3C[C@@H](C[C@]4(CC[C@H](C)[C@@H](C5CCCCC5)O4)O3)OC(=O)[C@@H]3C=C(C)/C(=N/O)[C@H]4OC/C(=C\C=C\[C@@H]2C)[C@]43O)O[C@@H](C)[C@@H]1O` [Selamectin], 13.4%.
For the molecule `CC(C)N(CCCCOCC(=O)NS(C)(=O)=O)c1cnc(-c2ccccc2)c(-c2ccccc2)n1` [Selexipag], the inhibition at 100 µM turned out to be 0%.
For `O=C(/C=C\n1cnc(-c2cc(C(F)(F)F)cc(C(F)(F)F)c2)n1)NNc1cnccn1` [Selinexor (KPT-330)], the inhibition at 100 µM came to 0%.
